{"source": "patent US9781927B2", "about": "“Microbicidal composition” (Dow Global Technologies LLC, priority 2016, dated 2017)", "key": {"[1]": {"tested_on": "Pseudomonas aeruginosa ATCC 10145 and Staphylococcus aureus ATCC 6538", "test": "Biocidal efficacy and synergy of glutaraldehyde and Surf. B against aerobic (facultative) bacteria (2 h kill, serial dilution enumeration)", "assay_type": "cell-based", "settings": "Glut part, alone (1:0) or in combination with Surf. B, 37° C., approximately 10^7 CFU/mL, 0.85% NaCl", "experimental": "(§1) Surfactants and biocides were evaluated for synergy by determining the synergy index (S.I.) of the combination. Synergy index was calculated based the concentration required to achieve a certain level of bacterial kill when the two antimicrobial compounds (A and B) alone and in combinations. The tests organisms were anaerobic sulfate-reducing bacteria (Desulfovibrio longus ATCC #51456), facultative bacteria Pseudomonas aeruginosa ATCC #10145 and Staphylococcus aureus ATCC #6538, R^2O(CH2CH(CH3)O)3(CH2CH2O)7H Surf. A R^2O(CH2CH(CH3)O)3(CH2CH2O)5H Surf. B R^2O(CH2CH(CH3)O)3(CH2CH2O)13H Surf. C where R^2 is a mixture of C8-C14 linear alkyl groups.\n(§2) SI is calculated as follows: Ca/CA+Cb/CB=Synergy Index (“SI”)\n(§3) Wherein: • Ca=Concentration of biocide A required to achieve a certain level of bacterial kill when used in combination with B • CA=Concentration of biocide A required to achieve a certain level of bacterial kill when used alone • Cb=Concentration of biocide B required to achieve a certain level of bacterial kill when used in combination with A • CB=Concentration of biocide B required to achieve a certain level of bacterial kill when used alone When the sum of Ca/CA and Cb/CB is greater than one, antagonism is indicated.\nSterile 0.85% NaCl solution was inoculated with approximately 10^7 CFU/mL of Pseudomonas aeruginosa ATCC 10145 and Staphylococcus aureus ATCC 6538. […]"}, "[2]": {"tested_on": "Desulfovibrio longus ATCC 51456", "test": "Biocidal efficacy and synergy of glutaraldehyde and Surf A-C against anaerobic sulfate-reducing bacteria (2 h kill, serial dilution enumeration)", "assay_type": "cell-based", "settings": "Glut part, 35° C.", "experimental": "as §1\nInside an anaerobic chamber (Bactron anaerobic chamber), a deoxygenated sterile salt solution (3.1183 g of NaCl, 1.3082 mg of NaHCO3, 47.70 mg of KCl, 72.00 mg of CaCl2, 54.49 mg of MgSO4, 172.28 mg of Na2SO4, 43.92 mg of Na2CO3 in 1 L water) was inoculated with Desulfovibrio longus ATCC 51456 to a final bacterial concentration of 10^6 to 10^7 CFU/mL. Aliquots of this cell suspension were then treated with glutaraldehyde, and each of Surf A-C at selected active concentrations. After incubation at 35° C. for 2 hours, viable bacteria in the aliquots were enumerated using serial dilution method.\nas §2, §3"}}}
{"smiles": "O=CCCCC=O", "note": "[Glut, glutaraldehyde, (1,5-pentanedial) CAS No. 111-30-8]", "values": [{"measurement": "Concentration (active ppm) for more than 99.999% bacterial kill in 2 hours, Glut", "setting": "[1]", "value": 29.6, "unit": "active ppm"}, {"measurement": "Concentration (active ppm) for complete bacterial kill in 2 hours, Glut", "setting": "[2]; alone (1:0) or in combination with Surf C", "value": 29.6, "unit": "active ppm"}, {"measurement": "Concentration (active ppm) for 99.99% bacterial kill in 2 hours, Glut", "setting": "[2]; alone (1:0) or in combination with Surf. A, 10^6 to 10^7 CFU/mL", "value": 13.2, "unit": "active ppm"}, {"measurement": "Concentration (active ppm) for more than 99.999% bacterial kill in 2 hours, Glut", "setting": "[2]; alone (1:0) or in combination with Surf. B", "value": 29.6, "unit": "active ppm"}]}
